Columns and labels:
Assay in all cases: KINOMEscan competition binding
Details in all cases: compound 10.0 µM
RPS6KA5 KD1 (human) = RPS6KA5 KD1 (human) (UniProt O75582)
CSNK2A1 (human) = CSNK2A1 (human) (UniProt P68400)
PRKCD (human) = PRKCD (human) (UniProt Q05655)
EPHA3 (human) = EPHA3 (human) (UniProt P29320)
CSK (human) = CSK (human) (UniProt P41240)
SIK2 (human) = SIK2 (human) (UniProt Q9H0K1)
ERBB2 (human) = ERBB2 (human) (UniProt P04626)
DAPK1 (human) = DAPK1 (human) (UniProt P53355)
RPS6KA2 KD2 (human) = RPS6KA2 KD2 (human) (UniProt Q15349)
PKMYT1 (human) = PKMYT1 (human) (UniProt Q99640)
CDK19 (human) = CDK19 (human) (UniProt Q9BWU1)
SRMS (human) = SRMS (human) (UniProt Q9H3Y6)
ABL1 (human) = ABL1 (human) (UniProt P00519)
CAMK2D (human) = CAMK2D (human) (UniProt Q13557)
TXK (human) = TXK (human) (UniProt P42681)
LIMK2 (human) = LIMK2 (human) (UniProt P53671)
PRKCE (human) = PRKCE (human) (UniProt Q02156)
[1] = molecular target: JAK3 JH1 catalytic (human) (UniProt P52333)
MUSK (human) = MUSK (human) (UniProt O15146)
LATS1 (human) = LATS1 (human) (UniProt O95835)
[2] = test system: ABL1 (human), P00519 [H396P]
TLK1 (human) = TLK1 (human) (UniProt Q9UKI8)
INSRR (human) = INSRR (human) (UniProt P14616)
TNK1 (human) = TNK1 (human) (UniProt Q13470)
CDC2L2 (human) = CDC2L2 (human) (UniProt Q9UQ88)
FLT1 (human) = FLT1 (human) (UniProt P17948)
LTK (human) = LTK (human) (UniProt P29376)
MAP2K6 (human) = MAP2K6 (human) (UniProt P52564)
INSR (human) = INSR (human) (UniProt P06213)
CDK15 (human) = CDK15 (human) (UniProt Q96Q40)
[3] = test system: EGFR (human), P00533 [747-751 del / S ins]

RPS6KA2 KD2 (human), sequence (Q15349 whole entry, looked up): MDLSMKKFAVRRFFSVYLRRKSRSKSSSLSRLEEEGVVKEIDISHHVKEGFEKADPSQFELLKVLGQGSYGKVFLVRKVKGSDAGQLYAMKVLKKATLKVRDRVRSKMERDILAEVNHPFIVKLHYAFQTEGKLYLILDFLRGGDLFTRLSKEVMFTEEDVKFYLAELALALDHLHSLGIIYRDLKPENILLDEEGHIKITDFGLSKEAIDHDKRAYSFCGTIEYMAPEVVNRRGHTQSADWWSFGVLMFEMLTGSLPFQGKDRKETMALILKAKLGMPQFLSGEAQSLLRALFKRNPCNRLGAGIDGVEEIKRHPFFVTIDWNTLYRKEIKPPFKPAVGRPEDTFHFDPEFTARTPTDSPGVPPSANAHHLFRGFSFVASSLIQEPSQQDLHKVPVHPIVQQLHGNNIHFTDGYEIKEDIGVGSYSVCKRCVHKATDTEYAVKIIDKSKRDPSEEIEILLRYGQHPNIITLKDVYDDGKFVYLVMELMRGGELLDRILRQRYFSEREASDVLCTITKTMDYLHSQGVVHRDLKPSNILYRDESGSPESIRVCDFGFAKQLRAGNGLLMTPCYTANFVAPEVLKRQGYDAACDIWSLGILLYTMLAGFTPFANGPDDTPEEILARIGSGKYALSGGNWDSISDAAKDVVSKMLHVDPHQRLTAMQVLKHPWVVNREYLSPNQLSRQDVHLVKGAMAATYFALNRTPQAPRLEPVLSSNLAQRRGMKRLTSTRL
INSRR (human), sequence (P14616 whole entry, looked up): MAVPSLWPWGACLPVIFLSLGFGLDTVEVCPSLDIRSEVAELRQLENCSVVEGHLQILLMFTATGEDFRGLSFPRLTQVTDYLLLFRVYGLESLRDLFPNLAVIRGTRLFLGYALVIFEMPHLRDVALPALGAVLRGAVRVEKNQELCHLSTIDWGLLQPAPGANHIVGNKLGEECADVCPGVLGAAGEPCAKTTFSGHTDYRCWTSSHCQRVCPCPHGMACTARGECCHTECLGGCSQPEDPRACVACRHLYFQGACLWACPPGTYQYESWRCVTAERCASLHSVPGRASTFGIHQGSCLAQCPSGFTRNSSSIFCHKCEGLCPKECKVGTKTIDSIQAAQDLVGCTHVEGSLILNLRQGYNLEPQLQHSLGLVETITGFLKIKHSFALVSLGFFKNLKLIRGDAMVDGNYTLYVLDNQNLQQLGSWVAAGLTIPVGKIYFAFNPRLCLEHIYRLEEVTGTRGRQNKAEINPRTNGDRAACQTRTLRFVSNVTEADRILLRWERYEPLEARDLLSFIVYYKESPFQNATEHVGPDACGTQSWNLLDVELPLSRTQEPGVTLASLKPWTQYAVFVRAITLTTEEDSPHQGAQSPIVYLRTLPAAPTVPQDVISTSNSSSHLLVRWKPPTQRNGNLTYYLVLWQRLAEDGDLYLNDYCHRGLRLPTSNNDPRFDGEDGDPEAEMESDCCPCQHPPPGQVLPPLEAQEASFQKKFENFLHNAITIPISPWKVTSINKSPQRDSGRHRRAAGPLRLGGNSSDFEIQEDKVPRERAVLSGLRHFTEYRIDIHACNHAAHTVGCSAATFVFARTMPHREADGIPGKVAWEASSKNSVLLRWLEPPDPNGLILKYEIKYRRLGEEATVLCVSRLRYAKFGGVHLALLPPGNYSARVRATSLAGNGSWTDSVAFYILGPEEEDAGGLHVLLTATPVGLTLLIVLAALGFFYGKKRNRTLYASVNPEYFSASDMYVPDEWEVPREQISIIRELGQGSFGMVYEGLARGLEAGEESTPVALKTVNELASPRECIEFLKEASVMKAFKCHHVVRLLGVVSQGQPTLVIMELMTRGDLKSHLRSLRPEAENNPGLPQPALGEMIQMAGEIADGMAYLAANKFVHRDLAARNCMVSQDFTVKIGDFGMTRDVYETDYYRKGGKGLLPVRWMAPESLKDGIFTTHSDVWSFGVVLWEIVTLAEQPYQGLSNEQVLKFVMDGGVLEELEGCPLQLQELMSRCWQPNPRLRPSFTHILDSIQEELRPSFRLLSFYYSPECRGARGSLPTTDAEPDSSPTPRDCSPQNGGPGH
SIK2 (human), sequence (Q9H0K1 whole entry, looked up): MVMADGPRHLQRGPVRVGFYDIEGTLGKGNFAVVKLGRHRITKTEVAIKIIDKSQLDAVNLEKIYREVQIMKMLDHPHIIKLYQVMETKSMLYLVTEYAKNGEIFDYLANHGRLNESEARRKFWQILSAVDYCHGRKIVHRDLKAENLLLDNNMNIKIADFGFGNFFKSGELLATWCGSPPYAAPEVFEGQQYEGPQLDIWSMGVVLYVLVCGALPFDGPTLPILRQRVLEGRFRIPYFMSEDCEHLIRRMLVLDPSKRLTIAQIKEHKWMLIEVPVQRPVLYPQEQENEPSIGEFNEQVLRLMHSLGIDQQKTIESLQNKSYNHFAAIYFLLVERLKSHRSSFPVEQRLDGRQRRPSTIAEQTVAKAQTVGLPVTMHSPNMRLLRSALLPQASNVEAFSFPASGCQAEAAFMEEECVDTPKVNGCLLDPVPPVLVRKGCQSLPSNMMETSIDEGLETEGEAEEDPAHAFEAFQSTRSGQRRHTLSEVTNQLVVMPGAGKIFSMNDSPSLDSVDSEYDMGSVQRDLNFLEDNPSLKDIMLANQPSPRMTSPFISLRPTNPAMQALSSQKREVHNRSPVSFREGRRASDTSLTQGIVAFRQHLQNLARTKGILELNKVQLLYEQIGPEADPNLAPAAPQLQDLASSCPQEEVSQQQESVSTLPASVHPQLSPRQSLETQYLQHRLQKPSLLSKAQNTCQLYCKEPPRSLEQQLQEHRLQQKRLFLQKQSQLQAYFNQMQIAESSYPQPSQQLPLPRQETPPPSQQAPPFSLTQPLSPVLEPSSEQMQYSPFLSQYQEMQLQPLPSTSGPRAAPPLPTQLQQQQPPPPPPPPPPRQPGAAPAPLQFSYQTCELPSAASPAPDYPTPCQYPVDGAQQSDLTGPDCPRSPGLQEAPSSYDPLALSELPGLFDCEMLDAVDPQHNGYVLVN
CSK (human), sequence (P41240 whole entry, looked up): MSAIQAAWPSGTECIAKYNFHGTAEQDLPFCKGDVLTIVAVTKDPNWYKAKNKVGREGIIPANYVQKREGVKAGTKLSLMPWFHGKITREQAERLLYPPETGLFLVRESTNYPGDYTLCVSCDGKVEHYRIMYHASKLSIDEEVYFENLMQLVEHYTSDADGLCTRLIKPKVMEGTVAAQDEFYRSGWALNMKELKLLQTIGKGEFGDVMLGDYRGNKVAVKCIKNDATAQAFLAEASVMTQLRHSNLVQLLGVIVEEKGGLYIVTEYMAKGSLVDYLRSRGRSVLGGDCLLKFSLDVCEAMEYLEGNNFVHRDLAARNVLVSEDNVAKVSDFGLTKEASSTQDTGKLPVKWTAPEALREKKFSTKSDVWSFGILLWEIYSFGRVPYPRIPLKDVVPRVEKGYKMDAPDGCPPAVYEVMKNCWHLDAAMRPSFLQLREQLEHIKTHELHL
LTK (human), sequence (P29376 whole entry, looked up): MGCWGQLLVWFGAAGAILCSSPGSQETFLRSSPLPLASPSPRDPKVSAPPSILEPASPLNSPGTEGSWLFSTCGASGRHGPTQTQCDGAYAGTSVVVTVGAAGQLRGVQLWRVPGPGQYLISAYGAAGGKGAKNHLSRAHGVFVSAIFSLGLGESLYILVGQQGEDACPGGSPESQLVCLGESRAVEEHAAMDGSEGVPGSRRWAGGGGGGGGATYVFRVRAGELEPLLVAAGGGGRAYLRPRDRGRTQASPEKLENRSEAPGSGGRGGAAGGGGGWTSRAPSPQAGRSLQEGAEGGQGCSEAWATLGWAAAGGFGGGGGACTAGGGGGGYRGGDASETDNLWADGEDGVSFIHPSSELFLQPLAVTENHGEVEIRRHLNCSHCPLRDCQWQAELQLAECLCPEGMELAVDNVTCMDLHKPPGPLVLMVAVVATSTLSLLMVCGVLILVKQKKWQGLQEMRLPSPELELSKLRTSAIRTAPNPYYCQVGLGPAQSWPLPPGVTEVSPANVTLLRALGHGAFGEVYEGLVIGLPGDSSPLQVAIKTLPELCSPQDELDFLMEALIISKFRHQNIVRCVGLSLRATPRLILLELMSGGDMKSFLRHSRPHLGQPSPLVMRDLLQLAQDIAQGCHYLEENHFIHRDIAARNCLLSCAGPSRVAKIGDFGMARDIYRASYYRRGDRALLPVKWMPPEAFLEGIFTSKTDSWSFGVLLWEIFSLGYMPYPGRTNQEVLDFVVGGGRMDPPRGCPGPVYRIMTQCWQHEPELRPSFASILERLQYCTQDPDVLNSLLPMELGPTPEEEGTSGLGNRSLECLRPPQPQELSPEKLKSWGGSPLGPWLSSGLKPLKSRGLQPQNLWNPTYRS
CDK15 (human), sequence (Q96Q40 whole entry, looked up): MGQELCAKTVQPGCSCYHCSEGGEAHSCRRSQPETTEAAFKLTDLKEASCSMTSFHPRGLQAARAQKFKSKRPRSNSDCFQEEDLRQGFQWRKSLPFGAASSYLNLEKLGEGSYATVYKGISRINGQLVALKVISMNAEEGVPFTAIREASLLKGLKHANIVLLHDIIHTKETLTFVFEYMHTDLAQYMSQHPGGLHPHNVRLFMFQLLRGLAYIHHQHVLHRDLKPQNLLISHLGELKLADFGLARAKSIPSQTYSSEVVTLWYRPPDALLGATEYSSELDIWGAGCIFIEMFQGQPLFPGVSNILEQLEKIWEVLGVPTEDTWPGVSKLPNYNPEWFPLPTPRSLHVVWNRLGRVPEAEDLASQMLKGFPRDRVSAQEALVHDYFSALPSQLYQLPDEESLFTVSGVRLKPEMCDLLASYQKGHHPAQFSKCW
MAP2K6 (human), sequence (P52564 whole entry, looked up): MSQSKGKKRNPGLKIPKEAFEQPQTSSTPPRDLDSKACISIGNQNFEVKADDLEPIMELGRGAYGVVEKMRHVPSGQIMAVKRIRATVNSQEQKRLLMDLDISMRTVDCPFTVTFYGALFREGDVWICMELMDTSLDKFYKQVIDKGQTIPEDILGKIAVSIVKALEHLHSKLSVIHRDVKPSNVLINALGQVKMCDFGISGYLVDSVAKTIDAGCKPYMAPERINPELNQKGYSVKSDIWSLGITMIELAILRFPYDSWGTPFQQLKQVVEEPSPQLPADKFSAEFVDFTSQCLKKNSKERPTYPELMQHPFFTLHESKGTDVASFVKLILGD

| SMILES | kinase still bound, per cent of control (RPS6KA5 KD1 (human)) [%] | kinase still bound, per cent of control (CSNK2A1 (human)) [%] | kinase still bound, per cent of control (PRKCD (human)) [%] | kinase still bound, per cent of control (EPHA3 (human)) [%] | kinase still bound, per cent of control (CSK (human)) [%] | kinase still bound, per cent of control (SIK2 (human)) [%] | kinase still bound, per cent of control (ERBB2 (human)) [%] | kinase still bound, per cent of control (DAPK1 (human)) [%] | kinase still bound, per cent of control (RPS6KA2 KD2 (human)) [%] | kinase still bound, per cent of control (PKMYT1 (human)) [%] | kinase still bound, per cent of control (CDK19 (human)) [%] | kinase still bound, per cent of control (SRMS (human)) [%] | kinase still bound, per cent of control (ABL1 (human)) [%] | kinase still bound, per cent of control (CAMK2D (human)) [%] | kinase still bound, per cent of control (TXK (human)) [%] | kinase still bound, per cent of control (LIMK2 (human)) [%] | kinase still bound, per cent of control (PRKCE (human)) [%] | kinase still bound, per cent of control [1] [%] | kinase still bound, per cent of control (MUSK (human)) [%] | kinase still bound, per cent of control (LATS1 (human)) [%] | further results |
| --- | --- | --- | --- | --- | --- | --- | --- | --- | --- | --- | --- | --- | --- | --- | --- | --- | --- | --- | --- | --- | --- |
| CCN(CC)CCCCNc1ncc2cc(-c3cc(OC)cc(OC)c3)c(NC(=O)NC(C)(C)C)nc2n1 | 100 | 100 | 100 | 100 | 100 | 100 | 100 | 100 | 100 | 100 | 100 | 100 | 100 | 100 | 100 | 100 | 100 | 100 | 100 | 100 | kinase still bound, per cent of control [2]: 100%; kinase still bound, per cent of control (TLK1 (human)): 100%; kinase still bound, per cent of control (INSRR (human)): 100%; kinase still bound, per cent of control (TNK1 (human)): 100%; kinase still bound, per cent of control (CDC2L2 (human)): 100%; kinase still bound, per cent of control (FLT1 (human)): 8%; kinase still bound, per cent of control (LTK (human)): 100%; kinase still bound, per cent of control (MAP2K6 (human)): 100% |
| Cc1n[nH]c2ccc(-c3cncc(OC[C@@H](N)Cc4c[nH]c5ccccc45)c3)cc12 | 11 | 17 | 0.85 | 100 | 100 | 100 | 100 | 2.2 | 100 | 100 | 0.5 | 100 | 100 | 2.5 | 100 | 100 | 0 | 32 | 100 | 3.8 | kinase still bound, per cent of control (INSR (human)): 100%; kinase still bound, per cent of control (CDK15 (human)): 16%; kinase still bound, per cent of control [2]: 100%; kinase still bound, per cent of control (TLK1 (human)): 100%; kinase still bound, per cent of control (INSRR (human)): 100%; kinase still bound, per cent of control (TNK1 (human)): 100%; kinase still bound, per cent of control (CDC2L2 (human)): 100%; kinase still bound, per cent of control (FLT1 (human)): 100%; kinase still bound, per cent of control (LTK (human)): 100%; kinase still bound, per cent of control (MAP2K6 (human)): 100% |
| CNC(=O)c1ccc(Nc2cc(Nc3ccccc3S(=O)(=O)C(C)C)c3cc[nH]c3n2)nc1 | 100 | 4.4 | 15 | 100 | 100 | 9.8 | 100 | 100 | 100 | 100 | 100 | 100 | 11 | 100 | 33 | 100 | 18 | 1.8 | 0.95 | 100 | kinase still bound, per cent of control (INSR (human)): 0.4%; kinase still bound, per cent of control (CDK15 (human)): 18%; kinase still bound, per cent of control [2]: 10%; kinase still bound, per cent of control (TLK1 (human)): 100%; kinase still bound, per cent of control (INSRR (human)): 3.2%; kinase still bound, per cent of control [3]: 100%; kinase still bound, per cent of control (TNK1 (human)): 4%; kinase still bound, per cent of control (CDC2L2 (human)): 100%; kinase still bound, per cent of control (FLT1 (human)): 100%; kinase still bound, per cent of control (LTK (human)): 0%; kinase still bound, per cent of control (MAP2K6 (human)): 29% |
| C=CC(=O)Nc1ccc(CN(C(=O)Nc2c(Cl)c(OC)cc(OC)c2Cl)c2cc(Nc3ccc(N4CCN(C)CC4)cc3)ncn2)cc1 | 100 | 100 | 100 | 100 | 100 | 100 | 16 | 100 | 100 | 100 | 100 | 100 | 16 | 100 | 16 | 100 | 100 | 0.15 | 6.2 | 100 | kinase still bound, per cent of control (INSR (human)): 24%; kinase still bound, per cent of control (CDK15 (human)): 100%; kinase still bound, per cent of control [2]: 20%; kinase still bound, per cent of control (TLK1 (human)): 100%; kinase still bound, per cent of control (INSRR (human)): 18%; kinase still bound, per cent of control [3]: 0.65%; kinase still bound, per cent of control (TNK1 (human)): 28%; kinase still bound, per cent of control (CDC2L2 (human)): 100%; kinase still bound, per cent of control (FLT1 (human)): 0.3%; kinase still bound, per cent of control (LTK (human)): 27%; kinase still bound, per cent of control (MAP2K6 (human)): 100% |
